Test results reported in US20200054563A1, “PHARMACEUTICAL COMPOSITION FOR IN VIVO DELIVERY, METHOD OF PREPARATION OF A SUBSTANTIALLY WATER-INSOLUBLE PHARMACOLOGICALLY ACTIVE AGENT FOR IN VIVO DELIVERY, AND METHOD OF TREATING DISEASE” (ZY Therapeutics Inc., priority 2017, published 2020).

Assay: Stability of the drug substance during the homogenization process (HPLC spectra)
Type: physicochemical
Conditions: nanosuspension prepared at pH 7.2 without pH change; additional peak in HPLC spectra (FIG. 2C), in some cases
Description: The formulation was filtered through a 0.22 μm membrane for sterilization. The Paclitaxel content before and after filtration was measured by HPLC. […] The split peak in HPLC may indicate the degradation of the drug during the process.

stability of the drug substance during the process: not stable during the process
SMILES: CC(=O)O[C@H]1C(=O)[C@@]2(C)[C@H]([C@H](OC(=O)c3ccccc3)[C@]3(O)C[C@H](OC(=O)[C@H](O)[C@@H](NC(=O)c4ccccc4)c4ccccc4)C(C)=C1C3(C)C)[C@]1(OC(C)=O)CO[C@@H]1C[C@@H]2O [Paclitaxel]
